Reference: BindingDB's records for doi:10.1016/s0960-894x(00)00185-2 (Yale University, 2000)

Columns and labels:
[1] = biological target: D(2) dopamine receptor (Rattus norvegicus) (UniProt P61169); experiment: Compound was evaluated for affinity towards dopamine D2-like receptor in homogenate of caudate putamen tissue from rat brain
[2] = biological target: 5-hydroxytryptamine receptor 2A (Rattus norvegicus, UniProt P14842); experiment: ChEBML_2648
Method: Compound was evaluated for affinity towards cerebral 5-hydroxytryptamine 2A receptor in homogenate of caudate putamen tissue from rat brain

[3] = biological target: D(1A) dopamine receptor (Rattus norvegicus, UniProt P18901); experiment: ChEBML_59008
Method: Compound was evaluated for affinity towards dopamine D1-like receptor in homogenate of caudate putamen tissue from rat brain

[4] = biological target: T1, 5-hydroxytryptamine receptor 2C (Rattus norvegicus, UniProt P08909); experiment: ChEBML_2831
T1 sequence (P08909 whole entry): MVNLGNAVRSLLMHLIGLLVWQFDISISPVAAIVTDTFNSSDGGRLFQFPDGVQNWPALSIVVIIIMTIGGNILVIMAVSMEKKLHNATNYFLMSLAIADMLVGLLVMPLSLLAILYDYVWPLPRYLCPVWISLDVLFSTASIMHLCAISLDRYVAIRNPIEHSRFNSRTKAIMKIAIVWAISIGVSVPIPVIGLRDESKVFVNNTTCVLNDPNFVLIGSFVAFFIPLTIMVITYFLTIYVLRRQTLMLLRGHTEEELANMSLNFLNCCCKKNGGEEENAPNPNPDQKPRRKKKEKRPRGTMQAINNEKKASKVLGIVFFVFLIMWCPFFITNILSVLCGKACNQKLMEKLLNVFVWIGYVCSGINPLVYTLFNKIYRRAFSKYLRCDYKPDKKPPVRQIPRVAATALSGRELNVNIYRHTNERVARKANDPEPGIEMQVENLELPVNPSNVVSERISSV
Method: Compound was evaluated for affinity towards cerebral 5-hydroxytryptamine 2C receptor in homogenate of caudate putamen tissue from rat brain

Sequence of D(2) dopamine receptor (Rattus norvegicus) (P61169 whole entry, looked up): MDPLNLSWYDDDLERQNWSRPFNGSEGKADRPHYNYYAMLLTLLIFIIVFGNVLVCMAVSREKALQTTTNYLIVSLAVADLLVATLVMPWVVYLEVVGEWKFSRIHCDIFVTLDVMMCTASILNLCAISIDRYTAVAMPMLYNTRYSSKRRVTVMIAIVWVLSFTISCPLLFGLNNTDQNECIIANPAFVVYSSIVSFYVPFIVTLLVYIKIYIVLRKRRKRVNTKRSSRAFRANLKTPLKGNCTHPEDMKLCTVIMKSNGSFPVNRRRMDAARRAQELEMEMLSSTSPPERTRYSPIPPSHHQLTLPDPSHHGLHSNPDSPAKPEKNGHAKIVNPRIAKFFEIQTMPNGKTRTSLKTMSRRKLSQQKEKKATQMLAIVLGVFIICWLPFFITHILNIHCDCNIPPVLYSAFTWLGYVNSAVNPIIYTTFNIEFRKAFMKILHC
Sequence of 5-hydroxytryptamine receptor 2A (P14842 whole entry): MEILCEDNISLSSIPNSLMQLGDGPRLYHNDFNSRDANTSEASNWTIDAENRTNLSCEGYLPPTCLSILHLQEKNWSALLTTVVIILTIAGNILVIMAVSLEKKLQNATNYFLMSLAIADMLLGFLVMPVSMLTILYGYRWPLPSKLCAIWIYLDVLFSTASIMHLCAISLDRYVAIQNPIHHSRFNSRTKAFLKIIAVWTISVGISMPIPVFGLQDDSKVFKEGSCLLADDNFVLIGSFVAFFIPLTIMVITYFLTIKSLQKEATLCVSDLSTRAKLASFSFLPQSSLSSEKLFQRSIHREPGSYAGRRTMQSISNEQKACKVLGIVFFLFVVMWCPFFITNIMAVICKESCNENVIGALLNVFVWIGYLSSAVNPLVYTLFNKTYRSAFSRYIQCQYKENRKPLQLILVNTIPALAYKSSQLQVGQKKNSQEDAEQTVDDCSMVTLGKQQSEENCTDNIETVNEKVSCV
Sequence of D(1A) dopamine receptor (P18901 whole entry): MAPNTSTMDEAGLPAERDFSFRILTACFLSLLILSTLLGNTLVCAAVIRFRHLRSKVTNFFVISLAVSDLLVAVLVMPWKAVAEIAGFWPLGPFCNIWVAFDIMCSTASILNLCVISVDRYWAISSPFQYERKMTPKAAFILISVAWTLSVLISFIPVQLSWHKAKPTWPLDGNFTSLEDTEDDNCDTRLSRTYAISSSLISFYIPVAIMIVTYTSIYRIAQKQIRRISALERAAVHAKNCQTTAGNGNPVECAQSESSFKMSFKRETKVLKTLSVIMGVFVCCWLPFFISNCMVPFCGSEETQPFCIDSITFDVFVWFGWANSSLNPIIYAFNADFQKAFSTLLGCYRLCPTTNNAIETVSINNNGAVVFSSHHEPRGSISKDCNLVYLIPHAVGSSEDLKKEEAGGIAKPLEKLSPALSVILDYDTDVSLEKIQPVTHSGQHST

Row | Ki [1] [nM] | Ki [2] [nM] | Ki [3] [nM] | Ki [4] [nM] | Structure (SMILES)
1 | 1120 |  |  |  | CN1CCc2cc(Cl)c(O)cc2C(c2cccc(Br)c2)C1 (centres undefined) [5-(3-Bromo-phenyl)-8-chloro-3-methyl-2,3,4,5-tetrahydro-1H-benzo[d]azepin-7-ol]
2 | 549 | 17 | 0.61 | 29 | CN1CCc2cc(Cl)c(O)cc2C(c2ccccc2C(=O)C2=CC=C[C@@H]2[Re]([CH]=O)([CH]=O)[CH]=O)C1 (some centres undefined) [Cyclopentadienyltricarbonylrheniumbenzazepine (2`-CPTR-SCH-23390)]
3 | > 10000 | 227 | 2.9 | 106 | CN1CCc2cc(Cl)c(O)cc2C(c2cccc(C(=O)C3=CC=C[C@@H]3[Re]([CH]=O)([CH]=O)[CH]=O)c2)C1 (some centres undefined) [Cyclopentadienyltricarbonylrheniumbenzazepine (3`-CPTR-SCH-23390)]
